For the assay, the system named is T1, CTX-M β-lactamase (ESBL).
T1 construct: gene blaCTX-M
As to the kind of experiment: nitrocefin hydrolysis colorimetric assay (kit MAK222) with cell-free lysate of ESBL-producing E. coli. The assay is classed as biochemical.

Results on two compounds are retold here after PMC9578474, “In vitro and in silico β-lactamase inhibitory properties and phytochemical profile of Ocimum basilicum cultivated in central delta of Egypt” (Pharmaceutical Biology, 2022).

Consider `O=C(O)[C@H]1/C(=C/CO)O[C@@H]2CC(=O)N21` [clavulanic acid], for which the Value clavulanic acid was determined as 8.1223 µg/mL.

Turning to `COC(=O)/C=C/c1ccccc1` [Methyl cinnamate], the Value methyl cinnamate was 11.6008 µg/mL.
